Data: paper PMC11129182, “Development of Inhibitors, Probes, and PROTAC Provides a Complete Toolbox to Study PARK7 in the Living Cell” (Journal of Medicinal Chemistry, 2024)
Like-named read-outs stand apart in the source and are kept apart here.

Assays:
[1] = target: T1, PARK7 (Homo sapiens, UniProt Q99497); assay: High-throughput screen of the crude compound library, PARK7 fluorescence polarization (FP) assay with FP reagent JYQ-107; assay type: biochemical; conditions: read-out: HTS FP assay %Inhibition (1.25 µM)
T1 sequence (Q99497 1-189): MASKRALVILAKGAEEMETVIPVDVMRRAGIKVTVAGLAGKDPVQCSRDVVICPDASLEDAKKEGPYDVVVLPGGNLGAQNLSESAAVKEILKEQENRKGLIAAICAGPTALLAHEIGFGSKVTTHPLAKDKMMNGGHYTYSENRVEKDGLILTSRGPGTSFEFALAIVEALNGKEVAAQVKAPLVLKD

[2] = target: T1, PARK7; assay: Hit validation and pure-compound testing in the PARK7 FP assay with JYQ-107; assay type: biochemical; conditions: for inhibition at 0.25 µM / inhibition at 0.5 µM / inhibition at 1 µM: crude compounds; for inhibition at 0.25 µM: read-out: % Inhibition 0.25 µM; for inhibition at 0.5 µM: read-out: % Inhibition 0.5 µM
[3] = 1.25 µM, crude compound library
[4] = 1.25 µM, crude compound library, FP reagent JYQ-107

| Compound | inhibition at 1.25 µM [1, 3] [%] | other results |
| --- | --- | --- |
| N#CN1CC[C@@H](C(=O)Nc2nc3c(s2)CN(C(=O)c2cccc(COc4cccc(F)c4)c2)CC3)C1 [Compound 110] | 94 | inhibition at 0.25 µM ([2]; 0.25 µM): 56.4%; inhibition at 0.5 µM [2]: 78.2%; inhibition at 1 µM ([2]; 1 µM): 93.5% |
| CN(CC1CC1)c1ccc(C(F)(F)F)cc1C(=O)N1CCc2nc(NC(=O)[C@@H]3CCN(C#N)C3)sc2C1 [Compound 304] | 93.7 | inhibition at 0.25 µM ([2]; 0.25 µM): 50.5%; inhibition at 0.5 µM [2]: 73.9%; inhibition at 1 µM ([2]; 1 µM): 93.7% |
| N#CN1CC[C@@H](C(=O)Nc2nc3c(s2)CN(C(=O)C2CC(=O)N(C4CCCCCC4)C2)CC3)C1 (stereo partly shown) [Compound 163] | 89.6 | inhibition at 0.25 µM ([2]; 0.25 µM): 43.1%; inhibition at 0.5 µM [2]: 70.9%; inhibition at 1 µM ([2]; 1 µM): 90.3% |
| (R)-1-Cyano-N-(5-(4-hydroxybenzoyl)-4,5,6,7-tetrahydrothiazolo[5,4-c]pyridin-2-yl)pyrrolidine-3-carboxamide [Compound 3] |  | % Inhibition 0.25 µM ([2]; pure compounds, 0.25 µM): 58.4%; % Inhibition 1 µM ([2]; pure compounds, 1 µM): 90.1%; potency in FP assay compared to JYQ-88 ([2]; pure compounds, 0.25 and 1 μM): slight improvement in potency compared to JYQ-88 |
| N#CN1CC[C@@H](C(=O)Nc2nc3c(s2)CN(C(=O)c2cccc(C=O)c2)CC3)C1 [compound 433] |  | inhibition at 1.25 µM [1, 4]: 81.4% |
| Cc1nc(-c2cccnc2)sc1C(=O)N1CCc2nc(NC(=O)[C@@H]3CCN(C#N)C3)sc2C1 [compound 128] | 76.5 |  |
| Cc1cc(OCC(=O)N2CCc3nc(NC(=O)[C@@H]4CCN(C#N)C4)sc3C2)ccc1C(C)C [compound 393] |  | inhibition at 1.25 µM [1, 4]: 80.3% |
| N#CN1CC[C@@H](C(=O)Nc2nc3c(s2)CN(C(=O)C2CC(=O)N(CCOc4ccccc4Cl)C2)CC3)C1 (stereo partly shown) [compound 101] | 79.1 |  |
| Cc1c(S(=O)(=O)N2CCC(C(=O)N3CCc4nc(NC(=O)[C@@H]5CCN(C#N)C5)sc4C3)CC2)cnn1C [compound 86] | 70.5 |  |
| N#CN1CC[C@@H](C(=O)Nc2nc3c(s2)CN(C(=O)C2CCCN2C(=O)C2CC2)CC3)C1 (stereo partly shown) [compound 322] | 67.1 |  |
| N#CN1CC[C@@H](C(=O)Nc2nc3c(s2)CN(C(=O)c2ccnn2C2CCOCC2)CC3)C1 [compound 132] | 73.2 |  |
| Cc1nnnn1-c1cc(C(=O)N2CCc3nc(NC(=O)[C@@H]4CCN(C#N)C4)sc3C2)cc(C(F)(F)F)c1 [compound 87] | 86.5 |  |
| N#CN1CC[C@@H](C(=O)Nc2nc3c(s2)CN(C(=O)c2ccc(N4NC(=O)CCC4=O)cc2)CC3)C1 [compound 125] | 85.7 |  |
| N#CN1CC[C@@H](C(=O)Nc2nc3c(s2)CNCC3)C1 [amine] |  | inhibition at 1.25 µM [1]: 39.9% |
| N#CN1CC[C@@H](C(=O)Nc2nc3c(s2)CN(C(=O)C(F)(F)n2cc(-c4ccccc4)nn2)CC3)C1 [compound 178] | 45.6 |  |
| N#CN1CC[C@@H](C(=O)Nc2nc3c(s2)CN(C(=O)c2ccccc2OCc2ccncc2)CC3)C1 [compound 45] | 68.7 |  |
| N#CN1CC[C@@H](C(=O)Nc2nc3c(s2)CN(C(=O)Cc2coc(-c4ccccc4)n2)CC3)C1 [compound 52] | 78.3 |  |
| CNc1ccc(C(=O)N2CCc3nc(NC(=O)[C@@H]4CCN(C#N)C4)sc3C2)cc1 [compound 439] |  | inhibition at 1.25 µM [1, 4]: 73.3% |
| N#CN1CC[C@@H](C(=O)Nc2nc3c(s2)CN(C(=O)c2sccc2S(=O)(=O)NC2CCCCCC2)CC3)C1 [compound 284] | 75.9 |  |
| N#CN1CC[C@@H](C(=O)Nc2nc3c(s2)CN(C(=O)c2nn(-c4ccccc4)c(=O)[nH]c2=O)CC3)C1 [compound 359] |  | inhibition at 1.25 µM [1, 4]: 67.9% |
| N#CN1CC[C@@H](C(=O)Nc2nc3c(s2)CN(C(=O)C(Cl)(Cl)Cl)CC3)C1 [compound 460] |  | inhibition at 1.25 µM [1, 4]: 6.9% |
| Cc1cc(-c2nc(C)sc2CC(=O)N2CCc3nc(NC(=O)[C@@H]4CCN(C#N)C4)sc3C2)c(C)s1 [compound 100] | 75.4 |  |
| N#CN1CC[C@@H](C(=O)Nc2nc3c(s2)CN(C(=O)Cc2cc(-c4ccccc4)on2)CC3)C1 [compound 14] | 73 |  |
| CC(=O)N1CCC(C(=O)N2CCc3nc(NC(=O)[C@@H]4CCN(C#N)C4)sc3C2)CC1 [compound 475] |  | inhibition at 1.25 µM [1, 4]: 68.5% |
| N#CN1CC[C@@H](C(=O)Nc2nc3c(s2)CN(C(=O)c2ccc(CNC(=O)OCC4c5ccccc5-c5ccccc54)cc2)CC3)C1 [compound 448] |  | inhibition at 1.25 µM [1, 4]: 63.9% |
| N#CN1CC[C@@H](C(=O)Nc2nc3c(s2)CN(C(=O)c2ccc(N4CCCCCC4)nc2)CC3)C1 [compound 261] | 84.5 |  |
| COC1CC(C(=O)N2CCc3nc(NC(=O)[C@@H]4CCN(C#N)C4)sc3C2)N(C(=O)OCc2ccccc2)C1 (stereo partly shown) [compound 382] |  | inhibition at 1.25 µM [1, 4]: 75.9% |

| Compound | inhibition at 1.25 µM [1, 3] [%] | other results |
| --- | --- | --- |
| Cc1nn(-c2ccc(C(F)(F)F)cn2)c(C)c1CC(=O)N1CCc2nc(NC(=O)[C@@H]3CCN(C#N)C3)sc2C1 [compound 169] | 77.8 |  |
| Cn1nc(C2CCC2)cc1C(=O)N1CCc2nc(NC(=O)[C@@H]3CCN(C#N)C3)sc2C1 [compound 350] |  | inhibition at 1.25 µM [1, 4]: 84.3% |
| N#CN1CC[C@@H](C(=O)Nc2nc3c(s2)CN(C(=O)c2cccnc2-n2cncn2)CC3)C1 [compound 292] | 73.8 |  |
| N#CN1CC[C@@H](C(=O)Nc2nc3c(s2)CN(C(=O)c2ncsc2Cc2ccccc2)CC3)C1 [compound 361] |  | inhibition at 1.25 µM [1, 4]: 82.9% |
| CN(CC(=O)N1CCCC(C(=O)N2CCc3nc(NC(=O)[C@@H]4CCN(C#N)C4)sc3C2)C1)c1ccc(Cl)cn1 (stereo partly shown) [compound 157] | 83.5 |  |
| Cc1nc(-c2ccco2)ccc1C(=O)N1CCc2nc(NC(=O)[C@@H]3CCN(C#N)C3)sc2C1 [compound 248] | 84.8 |  |
| Cn1cc(S(=O)(=O)N2CCOCC2)cc1C(=O)N1CCc2nc(NC(=O)[C@@H]3CCN(C#N)C3)sc2C1 [compound 240] | 75.1 |  |
| N#CN1CC[C@@H](C(=O)Nc2nc3c(s2)CN(C(=O)c2cn(CC4CCCO4)nn2)CC3)C1 (stereo partly shown) [compound 186] | 83.8 |  |
| N#CN1CC[C@@H](C(=O)Nc2nc3c(s2)CN(C(=O)c2cccc4cc5ccccc5cc24)CC3)C1 [compound 456] |  | inhibition at 1.25 µM [1, 4]: 80.6% |
| N#CN1CC[C@@H](C(=O)Nc2nc3c(s2)CN(C(=O)c2ccc(S(=O)(=O)NC4CC4)cc2)CC3)C1 [compound 48] | 79.8 |  |
| N#CN1CC[C@@H](C(=O)Nc2nc3c(s2)CN(C(=O)C2CCCN2C(=O)c2ccncc2)CC3)C1 (stereo partly shown) [compound 206] | 50.6 |  |
| N#CN1CC[C@@H](C(=O)Nc2nc3c(s2)CN(C(=O)CC2(Cn4cnnn4)CCCCC2)CC3)C1 [compound 233] | 77.5 |  |
| CN1CCN(C(=O)[C@@H]2[C@@H](C(=O)N3CCc4nc(NC(=O)[C@@H]5CCN(C#N)C5)sc4C3)C2(C)C)CC1 [compound 189] | 66.8 |  |
| Cn1cc(-c2nc(C(=O)N3CCc4nc(NC(=O)[C@@H]5CCN(C#N)C5)sc4C3)cs2)cn1 [compound 360] |  | inhibition at 1.25 µM [1, 4]: 72.2% |
| N#CN1CC[C@@H](C(=O)Nc2nc3c(s2)CN(C(=O)C2CC(OCc4ccccc4)C2)CC3)C1 (stereo partly shown) [compound 35] | 78.9 |  |
| N#CN1CC[C@@H](C(=O)Nc2nc3c(s2)CN(C(=O)c2ccc(COc4ccccc4Br)cc2)CC3)C1 [compound 123] | 67.6 |  |
| N#CN1CC[C@@H](C(=O)Nc2nc3c(s2)CN(C(=O)c2ccc(-n4cccn4)cc2)CC3)C1 [compound 203] | 70.1 |  |
| N#CN1CC[C@@H](C(=O)Nc2nc3c(s2)CN(C(=O)CN2C(=O)c4ccccc4C2=O)CC3)C1 [compound 436] |  | inhibition at 1.25 µM [1, 4]: 72.4% |
| N#CN1CC[C@@H](C(=O)Nc2nc3c(s2)CN(C(=O)C2CC=CCC2C(=O)N2CCOCC2)CC3)C1 (stereo partly shown) [compound 276] | 74.3 |  |
| N#CN1CC[C@@H](C(=O)Nc2nc3c(s2)CN(C(=O)c2ccc4c(c2)ncn4C2CCCCO2)CC3)C1 (stereo partly shown) [compound 471] |  | inhibition at 1.25 µM [1, 4]: 80% |
| Cc1nc(COc2ccccc2C(=O)N2CCc3nc(NC(=O)[C@@H]4CCN(C#N)C4)sc3C2)no1 [compound 223] | 74 |  |
| N#CN1CC[C@@H](C(=O)Nc2nc3c(s2)CN(C(=O)c2cc(S(N)(=O)=O)ccc2-c2cccc(C(F)(F)F)c2)CC3)C1 [compound 19] | 69 |  |
| Cn1ncc(C2CC2)c1C(=O)N1CCc2nc(NC(=O)[C@@H]3CCN(C#N)C3)sc2C1 [compound 82] | 71.4 |  |
| N#CN1CC[C@@H](C(=O)Nc2nc3c(s2)CN(C(=O)Cc2csc(-c4nnc[nH]4)n2)CC3)C1 [compound 202] | 81 |  |
| Cn1cc(S(=O)(=O)NCc2ccco2)cc1C(=O)N1CCc2nc(NC(=O)[C@@H]3CCN(C#N)C3)sc2C1 [compound 73] | 82.4 |  |
| N#CN1CC[C@@H](C(=O)Nc2nc3c(s2)CN(C(=O)c2cc(Cl)nc(N4CCCC4)c2)CC3)C1 [compound 160] | 74.9 |  |
